Measured values reported in US20080234262A1 (Wyeth, priority 2007, published 2008).

Biological target: PI3K (Homo sapiens, UniProt P42336)
Assay: Fluorescence polarization assay for PI3K;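 note: PI3K kinase reaction on PIP2 with ATP, 30-60 min, product sensed by GST-GRP with red probe in fluorescence polarization (mP), controls without enzyme and at zero time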
Format: biochemical
Details: PI3Kα; read-out: PI3Kα IC50

Chain of PI3K (P42336 whole entry): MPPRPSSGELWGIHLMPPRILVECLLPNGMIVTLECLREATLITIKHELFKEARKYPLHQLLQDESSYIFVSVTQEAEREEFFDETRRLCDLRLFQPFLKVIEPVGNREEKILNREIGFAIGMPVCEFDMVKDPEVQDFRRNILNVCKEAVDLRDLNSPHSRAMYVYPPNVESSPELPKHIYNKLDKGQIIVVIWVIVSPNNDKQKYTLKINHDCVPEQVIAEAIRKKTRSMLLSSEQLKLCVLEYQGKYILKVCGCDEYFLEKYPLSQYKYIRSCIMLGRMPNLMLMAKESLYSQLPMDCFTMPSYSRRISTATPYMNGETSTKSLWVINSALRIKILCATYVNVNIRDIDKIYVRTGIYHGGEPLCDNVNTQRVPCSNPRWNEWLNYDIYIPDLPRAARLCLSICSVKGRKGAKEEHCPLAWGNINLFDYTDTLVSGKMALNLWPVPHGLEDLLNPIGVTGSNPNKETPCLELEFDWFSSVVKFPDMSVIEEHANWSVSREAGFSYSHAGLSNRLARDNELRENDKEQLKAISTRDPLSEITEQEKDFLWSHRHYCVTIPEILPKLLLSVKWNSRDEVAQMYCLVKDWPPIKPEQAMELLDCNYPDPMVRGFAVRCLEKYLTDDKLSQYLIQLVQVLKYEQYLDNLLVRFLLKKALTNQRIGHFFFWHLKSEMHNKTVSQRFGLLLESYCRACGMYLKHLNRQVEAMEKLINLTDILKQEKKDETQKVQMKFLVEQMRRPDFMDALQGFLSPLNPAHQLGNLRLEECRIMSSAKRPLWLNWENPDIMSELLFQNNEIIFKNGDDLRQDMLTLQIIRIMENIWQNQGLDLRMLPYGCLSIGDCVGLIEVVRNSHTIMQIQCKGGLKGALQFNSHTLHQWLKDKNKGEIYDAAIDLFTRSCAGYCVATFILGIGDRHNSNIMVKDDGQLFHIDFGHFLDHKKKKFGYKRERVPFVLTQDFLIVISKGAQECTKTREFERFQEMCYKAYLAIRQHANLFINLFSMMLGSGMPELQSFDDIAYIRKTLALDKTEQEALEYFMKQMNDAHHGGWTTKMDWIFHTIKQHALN
Chain of PI3K (P27986 whole entry partner): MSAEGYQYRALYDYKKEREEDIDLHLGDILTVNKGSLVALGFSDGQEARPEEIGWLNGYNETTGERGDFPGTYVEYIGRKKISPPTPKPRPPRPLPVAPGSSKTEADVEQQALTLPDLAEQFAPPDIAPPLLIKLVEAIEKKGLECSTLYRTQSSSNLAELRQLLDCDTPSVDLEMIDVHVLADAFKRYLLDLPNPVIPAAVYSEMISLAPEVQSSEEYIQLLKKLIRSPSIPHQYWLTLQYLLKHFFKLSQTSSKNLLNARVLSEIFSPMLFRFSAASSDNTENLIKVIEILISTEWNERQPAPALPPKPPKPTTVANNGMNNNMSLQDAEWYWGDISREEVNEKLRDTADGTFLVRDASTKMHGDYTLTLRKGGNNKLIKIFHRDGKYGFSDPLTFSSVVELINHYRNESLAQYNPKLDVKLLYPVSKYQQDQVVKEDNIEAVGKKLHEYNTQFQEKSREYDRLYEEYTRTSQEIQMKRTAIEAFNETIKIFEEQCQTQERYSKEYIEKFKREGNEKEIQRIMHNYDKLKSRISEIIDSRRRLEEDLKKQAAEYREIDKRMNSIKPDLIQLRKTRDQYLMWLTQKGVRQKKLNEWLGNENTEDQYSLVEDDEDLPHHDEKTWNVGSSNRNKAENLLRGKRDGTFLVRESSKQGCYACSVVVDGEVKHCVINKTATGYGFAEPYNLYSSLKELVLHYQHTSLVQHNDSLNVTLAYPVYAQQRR

CNC(=O)Nc1ccc(-c2nc(N3CCOCC3)c3cnn(C4CCN(C)CC4)c3n2)cc1 [Compound 646, 1-methyl-3-{4-[1-(1-methylpiperidin-4-yl)-4-morpholin-4-yl-1H-pyrazolo[3,4-d]pyrimidin-6-yl]phenyl}urea]
IC50: 211 nM

CNC(=O)Nc1ccc(-c2nc(N3CCOCC3)c3cnn(C4CCN(Cc5ccco5)CC4)c3n2)cc1 [Compound 647, 1-(4-{1-[1-(2-furylmethyl)piperidin-4-yl]-4-morpholin-4-yl-1H-pyrazolo[3,4-d]pyrimidin-6-yl}phenyl)-3-methylurea]
IC50: 63 nM

COCOc1cncc(-c2nc(N3CCOCC3)c3cnn(C4CCN(Cc5ccccc5)CC4)c3n2)c1 [Compound 249, 1-(1-benzylpiperidin-4-yl)-6-[5-(methoxymethoxy)pyridin-3-yl]-4-morpholin-4-yl-1H-pyrazolo[3,4-d]pyrimidine]
IC50: 2000 nM

CNC(=O)Nc1ccc(-c2nc(N3CCOCC3)c3cnn(C4CCN(Cc5ccc(OC)c(O)c5)CC4)c3n2)cc1 [Compound 643, 1-(4-{1-[1-(3-hydroxy-4-methoxybenzyl)piperidin-4-yl]-4-morpholin-4-yl-1H-pyrazolo[3,4-d]pyrimidin-6-yl}phenyl)-3-methylurea]
IC50: 57 nM

CCOC(=O)Nc1ccc(-c2nc(N3CCOCC3)c3cnn(C4CCN(C(=O)c5ccccc5)CC4)c3n2)cc1 [Compound 628, ethyl {4-[1-(1-benzoylpiperidin-4-yl)-4-morpholin-4-yl-1H-pyrazolo[3,4-d]pyrimidin-6-yl]phenyl}carbamate]
IC50: 1580 nM

CNC(=O)Nc1ccc(-c2nc(N3CCOCC3)c3cnn(-c4ccccc4)c3n2)cc1 [Compound 543, 1-methyl-3-[4-(4-morpholin-4-yl-1-phenyl-1H-pyrazolo[3,4-d]pyrimidin-6-yl)phenyl]urea]
IC50: 50 nM

COC(=O)Nc1ccc(-c2nc(N3CCOCC3)c3cnn(C4CCN(CC(=O)c5ccccc5)CC4)c3n2)cc1 [Compound 701, methyl (4-{4-morpholin-4-yl-1-[1-(2-oxo-2-phenylethyl)piperidin-4-yl]-1H-pyrazolo[3,4-d]pyrimidin-6-yl}phenyl)carbamate]
IC50: 585 nM

COC(=O)Nc1ccc(-c2nc(N3CCOCC3)c3cnn(C4CCN(Cc5cccnc5OC)CC4)c3n2)cc1 [Compound 696, methyl [4-(1-{1-[(2-methoxypyridin-3-yl)methyl]piperidin-4-yl}-4-morpholin-4-yl-1H-pyrazolo[3,4-d]pyrimidin-6-yl)phenyl]carbamate]
IC50: 1830 nM

CCCOC(=O)Nc1ccc(-c2nc(N3CCOCC3)c3cnn(C4CCN(Cc5ccccc5)CC4)c3n2)cc1 [Compound 255, propyl {4-[1-(1-benzylpiperidin-4-yl)-4-morpholin-4-yl-1H-pyrazolo[3,4-d]pyrimidin-6-yl]phenyl}carbamate]
IC50: 4110 nM

CNC(=O)Nc1ccc(-c2nc(N3CCOCC3)c3cnn(C4CCN(C(=O)c5ccc[n+]([O-])c5)CC4)c3n2)cc1 [Example 328, 1-methyl-3-[4-(4-morpholin-4-yl-1-{1-[(1-oxidopyridin-3-yl)carbonyl]piperidin-4-yl}-1H-pyrazolo[3,4-d]pyrimidin-6-yl)phenyl]urea]
IC50: 198 nM

Nc1ccc(-c2nc(N3CCOCC3)c3cnn(C4CCCCO4)c3n2)cc1 (stereo not shown) [Compound 264, 4-[4-morpholin-4-yl-1-(tetrahydro-2H-pyran-2-yl)-1H-pyrazolo[3,4-d]pyrimidin-6-yl]aniline]
IC50: 119 nM

CN(C)CCC(=O)Nc1ccc(-c2nc(N3CCOCC3)c3cnn(-c4ccccc4)c3n2)cc1 [Compound 133]
IC50: 223 nM

c1cc2cc(-c3nc(N4CCOCC4)c4cnn(C5CCNCC5)c4n3)ccc2[nH]1 [Example 46]
IC50: 1310 nM

CNC(=O)Nc1ccc(-c2nc(N3CCOCC3)c3cn[nH]c3n2)cc1 [Compound 927, 1-methyl-3-[4-(4-morpholin-4-yl-1H-pyrazolo[3,4-d]pyrimidin-6-yl)phenyl]urea]
IC50: 104 nM

COC(=O)Nc1ccc(-c2nc(N3CCOCC3)c3cnn(C4CCN(Cc5ccc(F)cc5)CC4)c3n2)cc1 [Compound 959, methyl (4-{1-[1-(4-fluorobenzyl)piperidin-4-yl]-4-morpholin-4-yl-1Hpyrazolo[3,4-d]pyrimidin-6-yl}phenyl)carbamate]
IC50: 750 nM

CCNC(=NC#N)Nc1ccc(-c2nc(N3CCOCC3)c3cnn(C4CCN(Cc5cccnc5)CC4)c3n2)cc1 [Compound 652, 2-cyano-1-ethyl-3-(4-{4-morpholin-4-yl-1-[1-(pyridin-3-ylmethyl)piperidin-4-yl]-1H-pyrazolo[3,4-d]pyrimidin-6-yl}phenyl)guanidine]
IC50: 916 nM

CNC(=O)Nc1ccc(-c2nc(N3CCOCC3)c3cnn(C4CCCCO4)c3n2)cc1 (stereo not shown) [Compound 935, 1-methyl-3-{4-[4-morpholin-4-yl-1-(tetrahydro-2H-pyran-2-yl)-1H-pyrazolo[3,4-d]pyrimidin-6-yl]phenyl}urea]
IC50: 118 nM

CNC(=O)Nc1ccc(-c2nc(N3CCOCC3)c3cnn(C4CCN(C(=O)c5ccccc5F)CC4)c3n2)cc1 [Example 354, 1-(4-{1-[1-(2-fluorobenzoyl)piperidin-4-yl]-4-morpholin-4-yl-1H-pyrazolo[3,4-d]pyrimidin-6-yl}phenyl)-3-methylurea]
IC50: 80 nM

NC(=O)Cc1ccc(-c2nc(N3CCOCC3)c3cnn(C4CCN(Cc5ccccc5)CC4)c3n2)cc1 [Compound 370, 2-{4-[1-(1-benzylpiperidin-4-yl)-4-morpholin-4-yl-1H-pyrazolo[3,4-d]pyrimidin-6-yl]phenyl}acetamide]
IC50: 3130 nM

COC(=O)Nc1ccc(-c2nc(N3CCOCC3)c3cnn(C4CCNCC4)c3n2)cc1 [Compound 703, methyl [4-(4-morpholin-4-yl-1-piperidin-4-yl-1H-pyrazolo[3,4-d]pyrimidin-6-yl)phenyl]carbamate]
IC50: 1070 nM

O=C(NCCF)Nc1ccc(-c2nc(N3CCOCC3)c3cnn(C4CCN(C(=O)c5cccnc5)CC4)c3n2)c(F)c1 [Compound 707, 1-(2-fluoroethyl)-3-(3-fluoro-4-{4-morpholin-4-yl-1-[1-(pyridin-3-ylcarbonyl)piperidin-4-yl]-1H-pyrazolo[3,4-d]pyrimidin-6-yl}phenyl)urea]
IC50: 1730 nM

CC(=O)Nc1ccc(-c2nc(N3CCOCC3)c3cnn(C4CCCCO4)c3n2)cc1 (stereo not shown) [Compound 224, N-{4-[4-morpholin-4-yl-1-(tetrahydro-2H-pyran-2-yl)-1H-pyrazolo[3,4-d]pyrimidin-6-yl]phenyl}acetamide]
IC50: 1650 nM

O=C(Nc1cc(F)c(-c2nc(N3CCOCC3)c3cnn(C4CCN(C(=O)c5cccnc5)CC4)c3n2)cc1F)NC1CC1 [Compound 712, 1-cyclopropyl-3-(2,5-difluoro-4-{4-morpholin-4-yl-1-[1-(pyridin-3-ylcarbonyl)piperidin-4-yl]-1H-pyrazolo[3,4-d]pyrimidin-6-yl}phenyl)urea]
IC50: 3560 nM

COC(=O)Nc1cccc(-c2nc(N3CCOCC3)c3cnn(C4CCN(Cc5ccccc5)CC4)c3n2)c1 [Compound 227, methyl {3-[1-(1-benzylpiperidin-4-yl)-4-morpholin-4-yl-1H-pyrazolo[3,4-d]pyrimidin-6-yl]phenyl}carbamate]
IC50: 9020 nM

CNCCNC(=O)Nc1ccc(-c2nc(N3CCOCC3)c3cnn(C4CCN(C(=O)c5ccccc5)CC4)c3n2)cc1 [Compound 631, 1-{4-[1-(1-benzoylpiperidin-4-yl)-4-morpholin-4-yl-1H-pyrazolo[3,4-d]pyrimidin-6-yl]phenyl}-3-[2-(methylamino)ethyl]urea]
IC50: 48 nM
